Test results published in patent publication US9956220B2, “Imidazo-pyridazine derivatives as casein kinase 1 δ/ϵ inhibitors” (Bristol-Myers Squibb Company, priority 2014, dated 2018).

Assays:
CK1ϵ = CK1ϵ (Homo sapiens, UniProt P49674); experiment: CK1ϵ kinase assay (Caliper LABCHIP electrophoretic separation of fluoresceinated peptide substrate and product); assay type: biochemical; conditions: 200 pM CK1ϵ, 50 μM ATP, 1.5 μM peptide substrate, 22 hours at room temperature; read-out: CK1ε (IC50)
Chain of CK1ϵ (P49674 whole entry): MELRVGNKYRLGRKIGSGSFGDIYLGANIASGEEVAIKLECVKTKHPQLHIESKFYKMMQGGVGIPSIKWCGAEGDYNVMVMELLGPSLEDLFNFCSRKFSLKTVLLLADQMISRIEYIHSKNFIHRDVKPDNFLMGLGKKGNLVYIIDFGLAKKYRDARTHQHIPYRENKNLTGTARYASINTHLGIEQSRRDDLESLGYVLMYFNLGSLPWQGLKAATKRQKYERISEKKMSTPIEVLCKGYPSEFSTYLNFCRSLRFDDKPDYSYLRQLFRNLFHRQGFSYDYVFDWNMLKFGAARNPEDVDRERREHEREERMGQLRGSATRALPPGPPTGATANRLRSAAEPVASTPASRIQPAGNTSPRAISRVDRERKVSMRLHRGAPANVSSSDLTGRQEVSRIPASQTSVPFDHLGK
Procedure: (§1) CK1ϵ and CK1δ Kinase Assays
(§2) The kinase assay was performed in V-bottom 384-well plates.
(§3) The reaction was incubated at room temperature for 22 hours and terminated by adding 45 μl of 35 mM EDTA to each sample. The reaction mixture was analyzed on the Caliper LABCHIP®3000 (Caliper, Hopkinton, Mass.) by electrophoretic separation of the unphosphorylated substrate and phosphorylated product. […] Compounds were dissolved at 10 mM in dimethylsulfoxide (DMSO) and evaluated at eleven concentrations. IC50 values were derived by non-linear regression analysis.

CK1δ = CK1δ (Homo sapiens, UniProt P48730); experiment: CK1δ kinase assay (Caliper LABCHIP electrophoretic separation of fluoresceinated peptide substrate and product); assay type: biochemical; conditions: 200 pM CK1δ, 50 μM ATP, 1.5 μM peptide substrate, 22 hours at room temperature
Chain of CK1δ (P48730 whole entry): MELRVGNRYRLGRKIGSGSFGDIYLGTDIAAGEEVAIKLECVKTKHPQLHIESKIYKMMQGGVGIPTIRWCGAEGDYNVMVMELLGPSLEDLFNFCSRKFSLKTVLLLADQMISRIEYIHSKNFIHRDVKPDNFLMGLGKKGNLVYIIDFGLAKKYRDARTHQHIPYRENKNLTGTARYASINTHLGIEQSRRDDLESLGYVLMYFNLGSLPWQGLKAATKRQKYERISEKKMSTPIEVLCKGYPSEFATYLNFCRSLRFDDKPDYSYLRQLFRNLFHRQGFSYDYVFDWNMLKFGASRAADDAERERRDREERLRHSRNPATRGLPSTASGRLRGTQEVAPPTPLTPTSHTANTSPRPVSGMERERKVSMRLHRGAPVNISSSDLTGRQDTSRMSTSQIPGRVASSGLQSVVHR
Procedure: as §1, §2, §3

SMILES | IC50 (CK1ϵ) [nM] | IC50 (CK1δ) [nM]
O=C(Nc1cn2nc(-c3c(-c4ccc(F)cc4)nn4c3CN(C3CC3)CC4)ccc2n1)c1ccnc(F)c1 [Example 31, N-(6-(5-Cyclopropyl-2-(4-fluorophenyl)-4,5,6,7-tetrahydropyrazolo[1,5-a]pyrazin-3-yl)imidazo[1,2-b]pyridazin-2-yl)-2-fluoroisonicotinamide] | 1.1 | 0.1
O=C(Nc1cn2nc(-c3c(-c4ccc(F)cc4)nn4c3CN(CC(F)F)CC4)ccc2n1)c1ccnc(F)c1 [Example 32, N-(6-(5-(2,2-Difluoroethyl)-2-(4-fluorophenyl)-4,5,6,7-tetrahydropyrazolo[1,5-a]pyrazin-3-yl)imidazo[1,2-b]pyridazin-2-yl)-2-fluoroisonicotinamide] | 1.5 | 0.3
O=C(Nc1cn2nc(-c3c(-c4ccc(F)cc4)nn4c3CN(S(=O)(=O)C3CC3)CC4)ccc2n1)c1ccnc(F)c1 [Example 36, N-(6-(5-(Cyclopropylsulfonyl)-2-(4-fluorophenyl)-4,5,6,7-tetrahydropyrazolo[1,5-a]pyrazin-3-yl)imidazo[1,2-b]pyridazin-2-yl)-2-fluoroisonicotinamide] | 1.2 | 0.1
O=C(Nc1cn2nc(-c3c(-c4ccc(F)cc4)nn4c3CN(S(=O)(=O)c3ccc(F)cc3)CC4)ccc2n1)c1ccnc(F)c1 [Example 37, 2-Fluoro-N-(6-(2-(4-fluorophenyl)-5-((4-fluorophenyl)sulfonyl)-4,5,6,7-tetrahydropyrazolo [1,5-a]pyrazin-3-yl)imidazo [1,2-b]pyridazin-2-yl) isonicotinamide] | 14 | 1.1
O=C(Nc1cn2nc(-c3c(-c4ccc(F)cc4)nn4c3CN(S(=O)(=O)c3cccc(F)c3)CC4)ccc2n1)c1ccnc(F)c1 [Example 38, 2-Fluoro-N-(6-(2-(4-fluorophenyl)-5-((3-fluorophenyl)sulfonyl)-4,5,6,7-tetrahydropyrazolo [1,5-a]pyrazin-3-yl)imidazo [1,2-b]pyridazin-2-yl) isonicotinamide] | 4.9 | 0.3
Cn1cnc(S(=O)(=O)N2CCn3nc(-c4ccc(F)cc4)c(-c4ccc5nc(NC(=O)c6ccnc(F)c6)cn5n4)c3C2)c1 [Example 39, 2-Fluoro-N-(6-(2-(4-fluorophenyl)-5-((1-methyl-1H-imidazol-4-yl)sulfonyl)-4,5,6,7-tetrahydropyrazolo [1,5-a]pyrazin-3-yl)imidazo [1,2-b]pyridazin-2-yl) isonicotinamide] | 4.6 | 0.4
O=C(Nc1cn2nc(-c3c(-c4ccc(F)cc4)nn4c3CN(S(=O)(=O)Cc3ccccc3)CC4)ccc2n1)c1ccnc(F)c1 [Example 40, N-(6-(5-(Benzylsulfonyl)-2-(4-fluorophenyl)-4,5,6,7-tetrahydropyrazolo[1,5-a]pyrazin-3-yl)imidazo[1,2-b]pyridazin-2-yl)-2-fluoroisonicotinamide] | 10.3 | 2.8
O=C(Nc1cn2nc(-c3c(-c4ccc(F)cc4)nn4c3CN(C(=O)NC35CC6CC(CC(C6)C3)C5)CC4)ccc2n1)c1ccnc(F)c1 [Example 45, N-(Adamantan-1-yl)-3-(2-(2-fluoroisonicotinamido)imidazo [1,2-b]pyridazin-6-yl)-2-(4-fluorophenyl)-6,7-dihydropyrazolo[1,5-a]pyrazine-5(4H)-carboxamide] | 154 | 19.2
O=C(Nc1cn2nc(-c3c(-c4ccc(F)cc4)nn4c3CN(C(=O)Nc3ccc(C(F)(F)F)cc3)CC4)ccc2n1)c1ccnc(F)c1 [Example 47, 3-(2-(2-Fluoroisonicotinamido)imidazo[1,2-b]pyridazin-6-yl)-2-(4-fluorophenyl)-N-(4-(trifluoromethyl)phenyl)-6,7-dihydropyrazolo[1,5-a]pyrazine-5(4H)-carboxamide] | 146 | 12
O=C(Nc1cn2nc(-c3c(-c4ccc(F)cc4)nn4c3CN(C(=O)Nc3ccncc3)CC4)ccc2n1)c1ccnc(F)c1 [Example 49, 3-(2-(2-Fluoroisonicotinamido)imidazo[1,2-b]pyridazin-6-yl)-2-(4-fluorophenyl)-N-(pyridin-4-yl)-6,7-dihydropyrazolo[1,5-a]pyrazine-5(4H)-carboxamide] | 7.3 | 0.7
O=C(Nc1cn2nc(-c3c(-c4ccc(F)cc4)nn4c3COCC4)ccc2n1)c1ccnc(F)c1 [Example 53, 2-Fluoro-N-(6-(2-(4-fluorophenyl)-6,7-dihydro-4H-pyrazolo[5,1-c][1,4]oxazin-3-yl)imidazo[1,2-b]pyridazin-2-yl)isonicotinamide] | 4.1 | 0.4

The remaining lines, values ahead:

IC50 (CK1ϵ) [nM] | IC50 (CK1δ) [nM] | SMILES
1.9 | 0.3 | COC(=O)N1CCn2nc(-c3ccc(F)cc3)c(-c3ccc4nc(NC(=O)c5ccnc(F)c5)cn4n3)c2C1 [Example 33, Methyl 3-(2-(2-fluoroisonicotinamido)imidazo[1,2-b]pyridazin-6-yl)-2-(4-fluorophenyl)-6,7-dihydropyrazolo[1,5-a]pyrazine-5(4H)-carboxylate]
6.5 | 1 | CC(C)OC(=O)N1CCn2nc(-c3ccc(F)cc3)c(-c3ccc4nc(NC(=O)c5ccnc(F)c5)cn4n3)c2C1 [Example 34, Isopropyl 3-(2-(2-fluoroisonicotinamido)imidazo[1,2-b]pyridazin-6-yl)-2-(4-fluorophenyl)-6,7-dihydropyrazolo[1,5-a] pyrazine-5(4H)-carboxylate]
0.8 | 0.2 | CS(=O)(=O)N1CCn2nc(-c3ccc(F)cc3)c(-c3ccc4nc(NC(=O)c5ccnc(F)c5)cn4n3)c2C1 [Example 35, 2-Fluoro-N-(6-(2-(4-fluorophenyl)-5-(methylsulfonyl)-4,5,6,7-tetrahydropyrazolo[1,5-a]pyrazin-3-yl)imidazo[1,2-b]pyridazin-2-yl)isonicotinamide]
20.5 | 2.8 | CC(C)(C)NC(=O)N1CCn2nc(-c3ccc(F)cc3)c(-c3ccc4nc(NC(=O)c5ccnc(F)c5)cn4n3)c2C1 [Example 41, N-(tert-Butyl)-3-(2-(2-fluoroisonicotinamido)imidazo[1,2-b]pyridazin-6-yl)-2-(4-fluorophenyl)-6,7-dihydropyrazolo[1,5-a]pyrazine-5 (4)-carboxamide]
9.5 | 0.8 | CC(C)NC(=O)N1CCn2nc(-c3ccc(F)cc3)c(-c3ccc4nc(NC(=O)c5ccnc(F)c5)cn4n3)c2C1 [Example 42, 3-(2-(2-Fluoroisonicotinamido)imidazo[1,2-b]pyridazin-6-yl)-2-(4-fluorophenyl)-N-isopropyl-6,7-dihydropyrazolo[1,5-a] pyrazine-5(4H)-carboxamide]
24 | 1.6 | O=C(Nc1cn2nc(-c3c(-c4ccc(F)cc4)nn4c3CN(C(=O)NC3CCCCC3)CC4)ccc2n1)c1ccnc(F)c1 [Example 43, N-Cyclohexyl-3-(2-(2-fluoroisonicotinamido)imidazo [1,2-b]pyridazin-6-yl)-2-(4-fluorophenyl)-6,7-dihydropyrazolo[1,5-a]pyrazine-5(4H)-carboxamide]
13.9 | 2 | O=C(Nc1cn2nc(-c3c(-c4ccc(F)cc4)nn4c3CN(C(=O)NC3CCCC3)CC4)ccc2n1)c1ccnc(F)c1 [Example 44, N-Cyclopentyl-3-(2-(2-fluoroisonicotinamido)imidazo [1,2-b]pyridazin-6-yl)-2-(4-fluorophenyl)-6,7-dihydropyrazolo[1,5-a]pyrazine-5(4H)-carboxamide]
2.5 | 0.4 | O=C(Nc1cn2nc(-c3c(-c4ccc(F)cc4)nn4c3CN(C(=O)NC3CC3)CC4)ccc2n1)c1ccnc(F)c1 [Example 46, N-Cyclopropyl-3-(2-(2-fluoroisonicotinamido)imidazo[1,2-b]pyridazin-6-yl)-2-(4-fluorophenyl)-6,7-dihydropyrazolo[1,5-a]pyrazine-5(4H)-carboxamide]
5.6 | 0.4 | O=C(Nc1cn2nc(-c3c(-c4ccc(F)cc4)nn4c3CN(C(=O)NCC(F)(F)F)CC4)ccc2n1)c1ccnc(F)c1 [Example 48, 3-(2-(2-Fluoroisonicotinamido)imidazo[1,2-b]pyridazin-6-yl)-2-(4-fluorophenyl)-N-(2,2,2-trifluoroethyl)-6,7-dihydropyrazolo[1,5-a]pyrazine-5(4H)-carboxamide]
9.3 | 0.7 | O=C(Nc1cn2nc(-c3c(-c4ccc(F)cc4)nn4c3CN(C(=O)NCCC(F)(F)F)CC4)ccc2n1)c1ccnc(F)c1 [Example 50, 3-(2-(2-Fluoroisonicotinamido)imidazo[1,2-b]pyridazin-6-yl)-2-(4-fluorophenyl)-N-(3,3,3-trifluoropropyl)-6,7-dihydropyrazolo[1,5-a] pyrazine-5(4H)-carboxamide]
12.3 | 1.5 | O=C(Nc1cn2nc(-c3c(-c4ccc(F)cc4)nn4c3CN(C(=O)NC3(C(F)(F)F)CC3)CC4)ccc2n1)c1ccnc(F)c1 [Example 51, 3-(2-(2-Fluoroisonicotinamido)imidazo[1,2-b]pyridazin-6-yl)-2-(4-fluorophenyl)-N-(1-(trifluoromethyl)cyclopropyl)-6,7-dihydropyrazolo[1,5-a] pyrazine-5(4H)-carboxamide]
7.7 | 0.9 | CC1(NC(=O)N2CCn3nc(-c4ccc(F)cc4)c(-c4ccc5nc(NC(=O)c6ccnc(F)c6)cn5n4)c3C2)CC1 [Example 52, 3-(2-(2-Fluoroisonicotinamido)imidazo[1,2-b]pyridazin-6-yl)-2-(4-fluorophenyl)-N-(1-methylcyclopropyl)-6,7-dihydropyrazolo[1,5-a] pyrazine-5(4H)-carboxamide]
